Measurements reported in publication PMC11079024, “Identification of a family of species-selective complex I inhibitors as potential anthelmintics” (Nature Communications, 2024).
Where “and” joins values, the source holds several entries; their conditions need not be identical. Equal entries are not always repeated. Where two headings read alike, the source gives them in different places.

Tests used:
C. elegans = C. elegans chemical screens of RIKEN NPD libraries at 50 μM (hit identification in KCN survival and development/viability assays); type: cell-based, Caenorhabditis elegans; conditions: screened at 50 μM in triplicate; […]; KCN = KCN survival assay, Dev. & Viability = development/viability assay
[1] = system: C. elegans complex IV (cytochrome C oxidase); experiment: In vitro complex IV activity assay, C. elegans mitochondria; type: biochemical, Caenorhabditis elegans; conditions: for % Activity Complex IV: 100 µM compound, relative to solvent control, mean (SEM); for Percent in vitro activity, Complex IV (single replicate Rep1-Rep4) / Percent in vitro activity, Complex IV (Mean): 100 μM of NPD compound, C. elegans mitochondria; for Percent in vitro activity, Complex IV (single replicate Rep1-Rep4): individual biological replicates; for Percent in vitro activity, Complex IV (Mean): mean of four biological replicates
Summary of the method: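 Mitochondria from liquid-cultured adult C. elegans (N2, CB3474, ECA882, ECA917, ECA1075, ECA1080), isolated by differential centrifugation and used at 0.2 mg/mL protein. Oxidation of DTT-reduced cytochrome C followed at 550 nm every 30 s for 15 min. Activity from the initial linear slope, expressed as percent of solvent controls.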

[2] = biological target: C. elegans complex II (succinate dehydrogenase) (Caenorhabditis elegans, UniProt O62215+P41956+Q09545); experiment: In vitro complex II activity assay, C. elegans mitochondria; type: biochemical; conditions: for Percent in vitro activity, Complex II (single replicate Rep1-Rep4): individual biological replicates, 100 µM
Sequence of C. elegans complex II (succinate dehydrogenase) (P41956 30-182): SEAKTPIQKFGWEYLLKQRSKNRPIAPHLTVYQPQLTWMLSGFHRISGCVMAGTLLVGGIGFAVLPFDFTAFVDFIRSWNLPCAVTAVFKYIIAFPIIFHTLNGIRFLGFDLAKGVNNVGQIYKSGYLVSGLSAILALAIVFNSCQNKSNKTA
Sequence of C. elegans complex II (succinate dehydrogenase) (Q09545 22-298): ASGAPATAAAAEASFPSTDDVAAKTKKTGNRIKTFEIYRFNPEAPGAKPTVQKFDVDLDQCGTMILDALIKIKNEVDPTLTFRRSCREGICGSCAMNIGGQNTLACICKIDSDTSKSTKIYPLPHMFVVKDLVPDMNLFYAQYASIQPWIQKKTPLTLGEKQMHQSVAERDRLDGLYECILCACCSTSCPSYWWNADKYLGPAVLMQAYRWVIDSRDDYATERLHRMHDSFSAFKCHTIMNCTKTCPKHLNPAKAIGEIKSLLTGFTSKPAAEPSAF
Sequence of C. elegans complex II (succinate dehydrogenase) (Q09508 32-646, further chain): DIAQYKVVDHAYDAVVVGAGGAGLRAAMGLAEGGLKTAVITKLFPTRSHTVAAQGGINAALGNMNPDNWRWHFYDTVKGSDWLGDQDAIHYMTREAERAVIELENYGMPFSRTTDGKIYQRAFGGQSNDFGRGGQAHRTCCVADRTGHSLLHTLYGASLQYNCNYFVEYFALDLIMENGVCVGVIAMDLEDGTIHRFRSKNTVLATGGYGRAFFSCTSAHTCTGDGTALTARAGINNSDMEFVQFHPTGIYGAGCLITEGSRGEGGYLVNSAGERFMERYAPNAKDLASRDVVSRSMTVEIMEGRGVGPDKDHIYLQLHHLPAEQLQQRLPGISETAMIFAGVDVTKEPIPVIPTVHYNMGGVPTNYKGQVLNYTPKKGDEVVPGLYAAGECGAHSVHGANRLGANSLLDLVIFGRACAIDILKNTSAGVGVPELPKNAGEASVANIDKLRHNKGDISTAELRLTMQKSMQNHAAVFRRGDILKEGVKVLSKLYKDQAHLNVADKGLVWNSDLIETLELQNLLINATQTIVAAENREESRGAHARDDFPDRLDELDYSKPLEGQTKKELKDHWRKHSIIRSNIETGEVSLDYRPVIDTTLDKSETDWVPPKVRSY
Sequence of C. elegans complex II (succinate dehydrogenase) (O62215 31-145): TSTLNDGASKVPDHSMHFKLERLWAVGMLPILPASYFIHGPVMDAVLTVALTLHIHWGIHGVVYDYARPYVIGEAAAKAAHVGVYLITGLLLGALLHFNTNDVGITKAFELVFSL
Summary of the method: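 Mitochondria isolated from adult C. elegans were diluted to 0.2 mg/mL protein and assayed for complex II by the DCIP-coupled method. A600 was read every 30 s over 15 min, with initial linear slope expressed as percent of solvent control. Screening was at 100 μM (≥3 biological replicates), followed by dose-response.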

[3] = 100 µM compound, relative to solvent control, mean (SEM), read-out: % Activity Complex II
[4] = 100 μM of NPD compound, C. elegans mitochondria
[5] = 100 μM of NPD compound, C. elegans mitochondria, mean of four biological replicates, read-out: Percent in vitro activity, Complex II (Mean)

SMILES | Hit Type (C. elegans) | % Activity Complex IV [1] | Percent in vitro activity, Complex IV (single replicate Rep1-Rep4) [1] | Percent in vitro activity, Complex IV (Mean) [1] | activity at 100 µM [2, 3] | Percent in vitro activity, Complex II (single replicate Rep1-Rep4) [2, 4] | activity at 100 µM [2, 5]
COc1cc2c(cc1OC)C(/C=C/c1ccc(N(C)C)cc1)=NCC2 [NPD6303] | KCN | 83.07 (1.76) % | 86.689% and 90.588% and 80.321% and 74.685% | 83.071% | 101% | 124.122% and 89.817% and 91.578% and 100.352% | 101%
COc1cc2c(cc1OC)C(C(C)c1ccc(CC(C)C)cc1)=NCC2 (centres unmarked) [NPD10504] | KCN | 74.57 (1.35) % | 71.688% and 71.402% and 72.596% and 82.587% | 74.568% | 106% | 86.801% and 136.285% and 101.347% and 99.840% | 106%
